In paper PMC10779433, “Bidirectional Allosteric Coupling between PIP2 Binding and the Pore of the Oncochannel TRPV6” (International Journal of Molecular Sciences, 2024):
Read-outs that look alike come from different tables or passages of the source. Blank lines part the entries; values can stand above or below the compound they belong to. Residues, ends and D or L forms follow the SMILES beside them. *: point of attachment. Palmitoyl = CCCCCCCCCCCCCCCC(=O)*

Tests used:
[1] = target: T1, TRPV6 WT (Homo sapiens, UniProt Q9H1D0); experiment: Whole-cell patch clamp, TRPV6 WT; type: cell-based; conditions: for re-activation after washout with DMSO: 0.1 μM cis-22a or 10 μM pal-PIP2 peptide, then diluted DMSO, n=4 each, Figure S6C,D
T1 construct: expressed in transfected cells; host or cells: HEK293 cells, transient transfection
T1 sequence (Q9H1D0 41-765 limits assumed): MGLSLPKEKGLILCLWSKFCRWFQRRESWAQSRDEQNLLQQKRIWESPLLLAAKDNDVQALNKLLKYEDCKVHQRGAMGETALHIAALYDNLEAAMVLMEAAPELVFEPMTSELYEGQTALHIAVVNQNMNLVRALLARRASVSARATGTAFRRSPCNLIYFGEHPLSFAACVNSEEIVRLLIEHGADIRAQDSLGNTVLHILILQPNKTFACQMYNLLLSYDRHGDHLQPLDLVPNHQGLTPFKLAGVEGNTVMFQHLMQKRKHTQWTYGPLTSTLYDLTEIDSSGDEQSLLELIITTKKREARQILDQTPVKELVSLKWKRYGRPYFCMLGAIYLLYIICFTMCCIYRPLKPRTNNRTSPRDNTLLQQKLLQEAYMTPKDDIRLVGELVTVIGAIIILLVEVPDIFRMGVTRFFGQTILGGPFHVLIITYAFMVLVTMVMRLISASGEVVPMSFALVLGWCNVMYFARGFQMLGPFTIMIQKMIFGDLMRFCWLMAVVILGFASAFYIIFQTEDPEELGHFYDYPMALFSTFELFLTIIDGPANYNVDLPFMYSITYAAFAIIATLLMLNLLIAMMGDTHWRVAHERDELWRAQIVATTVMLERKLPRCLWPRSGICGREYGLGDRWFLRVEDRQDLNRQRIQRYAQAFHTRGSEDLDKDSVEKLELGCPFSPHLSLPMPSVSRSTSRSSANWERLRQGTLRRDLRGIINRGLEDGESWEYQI
Excerpt: N-terminally TagRFP-labeled human TRPV6 (725 aa) was kindly provided by R. Bhardwaj and M. Hediger (University of Bern, Bern, Switzerland). This variant is translated from the first ATG codon and thus deviates from the non-ATG-initiated protein which is expressed in vivo (accession number NM_018646.6) by lacking 40 amino acids of the very N-terminus. For N-terminal labeling with EYFP, TRPV6 was cloned into pEYFP-C1 (Clontech) via EcoRI and SacII restriction sites. Mutations (F468A, R470A, F472A, K484A/Q, G488R, R492A/Q, I575A, G579A, D580A/K, H582A, W583A/F, H587A, R589A, W593A, R632A/Q, R470A, W583F) were introduced using the QuickChange XL site-directed mutagenesis kit (Stratagene, San Diego, CA, USA) and Pfu DNA Polymerase (Promega, Madison, WI, USA). pTagRFP-hTRPV6 I575A was kindly provided by the lab of M. Hediger (University of Bern, Bern, Switzerland). Forward and reverse primers for site-directed mutagenesis were synthesized by Eurofins genomics GmbH (Wien, Vienna, Austria). Intactness of the constructs in terms of sequence was confirmed by sequencing (Microsynth Austria GmbH, Wien, Vienna, Austria; Eurofins genomics GmbH, Wien, Vienna, Austria). In the present experiments, Tag-RFP-labeled constructs were implemented for NFAT screens, patch clamp measurements, and Fura-2-based Ca^2+ imaging, while for R.Geco1.2 measurements, TRPV6 WT and mutants were used which carried an EYFP label at the N-terminus (pEYFP-C1 vector) to avoid spectral overlap. R.Geco1.2 was purchased from Addgene (No. 45494), and mCherry-CRY2-5ptase OCRL was established in the lab of P. De Camilli and was derived from Addgene (No. 66836), as was CIBN-CAAX (No. 79574). Plasmids encoding for mCerulean3-CRY2-5′ ptase OCRL, YFP-CIBN-CAAX, and the mCherry-tagged PH domain were provided by K. Groschner (Medical University of Graz, Graz, Austria). […] CFP-NFAT (NFATc1, equivalent to NFAT2) was kindly provided by R. Kehlenbach (Scripps Research Institute, La Jolla, CA, USA).
Cultivation of human embryonic kidney (HEK) 293 cells occurred in DMEM supplemented with 10% fetal calf serum, penicillin (100 U/mL), and streptomycin (100 µg/mL) at 37 °C under humidified atmosphere containing 5% CO2. Transient transfection was performed 20–24 h prior to experiments using the TransFectin lipid reagent (Bio-Rad, Hercules, CA, USA), in accordance with the instructions of the supplier. For Ca^2+ imaging using R.Geco1.2, 2 μg of the indicator-encoding plasmid were additionally transfected, while 1 μg plasmid DNA was routinely used per construct in all other cases. For patch clamp experiments, cells were reseeded on poly-L-lysine-coated glass slides at least 4 h prior to experiments. To exclude mycoplasma contaminations, culture supernatants were regularly tested by means of the VenorGem Advanced Mycoplasma Detection kit (VenorGEM, Berlin, Germany).
Electrophysiological experiments were performed at 20 °C to 24 °C in whole-cell recording configurations of the patch clamp technique. A Ag/AgCl electrode was used as a reference electrode. The implemented voltage ramp protocol included a holding potential of +50 mV, wherefrom voltage was ramped from −90 mV to +90 mV within 200 ms with an interval of 5 s between individual ramps. For the time courses, the inward current density at −74 mV was considered. The internal pipette solution contained 145 mM cesium methane sulfonate, 8 mM NaCl, 3.5 mM MgCl2, 10 mM HEPES, and 20 mM EGTA (pH 7.2). For electrophysiological measurements, the basic extracellular solution was composed of 145 mM NaCl, 5 mM CsCl, 1 mM MgCl2, 10 mM HEPES, 10 mM glucose, and 10 mM CaCl2 (pH 7.4). Leak correction of currents was performed by subtracting the residual current after 1 mM La^3+ application at the end of the experiment. The liquid junction potential was determined as 12 mV; the voltages were not adjusted. Clampfit 11.1.0.23 and OriginPro 2020b software were used for data analysis. All experiments were conducted on a minimum of two different days.

[2] = system: TRPV6 R492Q; experiment: Whole-cell patch clamp, TRPV6 R492Q; type: cell-based, human; conditions: HEK293 cells, p < 0.05
Excerpt: N-terminally TagRFP-labeled human TRPV6 (725 aa) was kindly provided by R. Bhardwaj and M. Hediger (University of Bern, Bern, Switzerland). This variant is translated from the first ATG codon and thus deviates from the non-ATG-initiated protein which is expressed in vivo (accession number NM_018646.6) by lacking 40 amino acids of the very N-terminus. For N-terminal labeling with EYFP, TRPV6 was cloned into pEYFP-C1 (Clontech) via EcoRI and SacII restriction sites. Mutations (F468A, R470A, F472A, K484A/Q, G488R, R492A/Q, I575A, G579A, D580A/K, H582A, W583A/F, H587A, R589A, W593A, R632A/Q, R470A, W583F) were introduced using the QuickChange XL site-directed mutagenesis kit (Stratagene, San Diego, CA, USA) and Pfu DNA Polymerase (Promega, Madison, WI, USA). pTagRFP-hTRPV6 I575A was kindly provided by the lab of M. Hediger (University of Bern, Bern, Switzerland). Forward and reverse primers for site-directed mutagenesis were synthesized by Eurofins genomics GmbH (Wien, Vienna, Austria). Intactness of the constructs in terms of sequence was confirmed by sequencing (Microsynth Austria GmbH, Wien, Vienna, Austria; Eurofins genomics GmbH, Wien, Vienna, Austria). In the present experiments, Tag-RFP-labeled constructs were implemented for NFAT screens, patch clamp measurements, and Fura-2-based Ca^2+ imaging, while for R.Geco1.2 measurements, TRPV6 WT and mutants were used which carried an EYFP label at the N-terminus (pEYFP-C1 vector) to avoid spectral overlap. R.Geco1.2 was purchased from Addgene (No. 45494), and mCherry-CRY2-5ptase OCRL was established in the lab of P. De Camilli and was derived from Addgene (No. 66836), as was CIBN-CAAX (No. 79574). Plasmids encoding for mCerulean3-CRY2-5′ ptase OCRL, YFP-CIBN-CAAX, and the mCherry-tagged PH domain were provided by K. Groschner (Medical University of Graz, Graz, Austria). […]
(§1) Electrophysiological experiments were performed at 20 °C to 24 °C in whole-cell recording configurations of the patch clamp technique. […] The liquid junction potential was determined as 12 mV; the voltages were not adjusted. […]

[3] = system: TRPV6 R470A; experiment: Whole-cell patch clamp, TRPV6 R470A; type: cell-based, human; conditions: HEK293 cells; 10 μM pal-PIP2 peptide; p < 0.05; Figure 4D
Excerpt: N-terminally TagRFP-labeled human TRPV6 (725 aa) was kindly provided by R. Bhardwaj and M. Hediger (University of Bern, Bern, Switzerland). This variant is translated from the first ATG codon and thus deviates from the non-ATG-initiated protein which is expressed in vivo (accession number NM_018646.6) by lacking 40 amino acids of the very N-terminus. For N-terminal labeling with EYFP, TRPV6 was cloned into pEYFP-C1 (Clontech) via EcoRI and SacII restriction sites. Mutations (F468A, R470A, F472A, K484A/Q, G488R, R492A/Q, I575A, G579A, D580A/K, H582A, W583A/F, H587A, R589A, W593A, R632A/Q, R470A, W583F) were introduced using the QuickChange XL site-directed mutagenesis kit (Stratagene, San Diego, CA, USA) and Pfu DNA Polymerase (Promega, Madison, WI, USA). pTagRFP-hTRPV6 I575A was kindly provided by the lab of M. Hediger (University of Bern, Bern, Switzerland). Forward and reverse primers for site-directed mutagenesis were synthesized by Eurofins genomics GmbH (Wien, Vienna, Austria). Intactness of the constructs in terms of sequence was confirmed by sequencing (Microsynth Austria GmbH, Wien, Vienna, Austria; Eurofins genomics GmbH, Wien, Vienna, Austria). […]
as §1

- re-activation after washout with DMSO ([1]; HEK293 cells): no re-activation occurred
- inhibition of current (in words) ([1]; HEK293 cells, 10 µM cis-22a, after 0.1 µM, Figure 2D): almost complete block
- inhibition of current ([1]; HEK293 cells, 10 μM cis-22a, 10 mM Ca2+, relative to La3+ block, Figure 4C): ~ 98%
SMILES: Cc1cccc(C2CCC(N3CCN(c4cccnc4)CC3)CC2)c1.O=C(O)C(F)(F)F (stereo not drawn) [cis-22a]
- current inhibition vs TRPV6 WT ([2]; 0.1 μM cis-22a): significantly reduced
- current inhibition vs TRPV6 WT ([2]; 10 μM cis-22a, after 0.1 μM): significantly reduced inhibition

SMILES: CCCCCCCCCCCCCCCC(=O)N[C@@H](Cc1c[nH]cn1)C(=O)N[C@@H](CCCNC(=N)N)C(=O)N[C@@H](CCC(N)=O)C(=O)N[C@@H](CCCCN)C(=O)N[C@@H](Cc1c[nH]cn1)C(=O)N[C@@H](Cc1ccccc1)C(=O)N[C@@H](CCC(=O)O)C(=O)N[C@@H](CCCCN)C(=O)N[C@@H](CCCNC(=N)N)C(=O)N[C@@H](CCCNC(=N)N)C(N)=O [pal-PIP2 peptide] (Palmitoyl-HRQKHFEKRR-NH2)
- IC50 [1]: 4.47 µM
- inhibition at 20 µM ([1]; HEK293, read-out: apparent inhibition of current): ~63%
- inhibition at 10 µM ([1]; HEK293, read-out: inhibition of current): ~56%
- inhibition at 10 µM ([1]; HEK293, read-out: mean percentage of inhibition (current)): 51.6%
- inhibition at 10 µM ([1]; HEK293, read-out: mean percentage of inhibition (residual current)): 54%
- re-activation after washout with DMSO ([1]; HEK293 cells): no re-activation occurred
- Ca2+ selectivity ([1]; HEK293 cells, 10 μM pal-PIP2 peptide, current-voltage relationship, Figure S1D): remained unchanged
- reduction of current density (in words) ([1]; HEK293 cells, Figure 1C,D, S1B–D): reduced in a dose-dependent manner
- Hill coefficient of dose–response ([1]; HEK293 cells, Hill fit, 0.1 μM to 30 μM): 1.95
- effect at further increased concentration ([1]; HEK293 cells, above 30 μM up to 100 μM, supposedly due to increased DMSO concentration): rapid membrane rupture or leaky measurements
- maximum inhibition of TRPV6 currents (plateau) ([1]; HEK293 cells, plateau from 20 μM on): about 60%
- sensitivity to peptide-based PIP2 sequestration vs WT ([2]; 10 μM pal-PIP2 peptide, Figure 4D): significantly reduced sensitivity
- sensitivity to peptide-based PIP2 sequestration vs WT [3]: significantly reduced sensitivity
